Tests used:
KRas G12C = KRas G12C (Homo sapiens, UniProt P01116, G12C); assay: biochemical;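 also: binding to KRas assessed by TR-FRET displacement after one hour incubation at room temperature, potency fitted from percent-of-control values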
Protocol: (§2) The ability of a compound to bind to KRas was measured using a TR-FRET displacement assay. […] After a 60-minute incubation at room temperature, the reaction was measured using a BMG LABTECH CLARIO star Plus via TR-FRET. […] The POC values were fit to a 4-parameter IC50 equation and the IC50 value reported.

KRas G12D = KRas G12D (Homo sapiens, UniProt P01116, G12D); assay: biochemical;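 also: TR-FRET displacement binding assay on KRas, read after a one-hour incubation at room temperature, IC50 fitted from percent-of-control values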
Protocol: as §2

KRas G12V = KRas G12V (Homo sapiens, UniProt P01116, G12V); assay: biochemical;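 also: KRas binding measured by TR-FRET displacement at room temperature, IC50 fitted from percent of control values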
Protocol: as §2

KRas Q61H = molecular target: T1, KRas Q61H (Homo sapiens, UniProt P01116, Q61H); assay: KRas binding assay (TR-FRET displacement);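 also: TR-FRET signal read after one hour at room temperature, IC50 derived by four-parameter fitting of percent-of-control values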
T1 construct: Biotinylated KRas (corresponding to amino acids 1-169, produced at Accelegan Inc.); biotin (biotinylated); purchased Accelegan Inc
Protocol: as §2

KRas WT = KRas WT (Homo sapiens, UniProt P01116); assay: biochemical;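 also: binding to KRas read as TR-FRET displacement after a one-hour room-temperature incubation, IC50 derived from percent-of-control values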
Protocol: as §2

KRas G12S = KRas G12S (Homo sapiens, UniProt P01116, G12S); assay: biochemical;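 also: TR-FRET displacement binding to KRas, read after one hour incubation at room temperature, IC50 from four-parameter fit of percent of control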
Protocol: as §2

KRas G13D = molecular target: T2, KRas G13D (Homo sapiens, UniProt P01116, G13D); assay: KRas binding assay (TR-FRET displacement);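 also: One-hour room temperature incubation before TR-FRET reading, IC50 from a four-parameter curve fit to percent-of-control data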
T2 construct: Biotinylated KRas (corresponding to amino acids 1-169, produced at Accelegan Inc.); biotin (biotinylated); purchased Accelegan Inc
Protocol: as §2

KRas G12A = KRas G12A (Homo sapiens, UniProt P01116, G12A); assay: biochemical;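 also: binding to KRas measured by TR-FRET displacement after one hour at room temperature, IC50 from a four-parameter fit of percent-of-control values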
Protocol: as §2

[1] = tested on: phospho-ERK in NCI-H460 (Q61H) cells; assay: Inhibition of KRas-mediated phosphorylation of ERK (in-cell western); type: cell-based; conditions: Homo sapiens, NCI-H460, 3 h, 3 hours compound, phospho-ERK normalized to GAPDH
Method in brief: (§1)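 After a 3-hour incubation with diluted compound in 0.5% DMSO, cells are fixed, permeabilized and stained overnight at 4° C for phosphorylated ERK and GAPDH.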

[2] = tested on: phospho-ERK in NCI-H358 (G12C) cells; assay: as above; type: cell-based; conditions: Homo sapiens, 3 hours compound, phospho-ERK normalized to GAPDH
Method in brief: as §1

[3] = tested on: phospho-ERK in NCI-H727 (G12V) cells; assay: as above; type: cell-based; conditions: Homo sapiens, NCI-H727, 3 h, 3 hours compound, phospho-ERK normalized to GAPDH
Method in brief: as §1

[4] = tested on: phospho-ERK in AsPC-1 (G12D) cells; assay: as above; type: cell-based; conditions: Homo sapiens, ASPC1, 3 h, 3 hours compound, phospho-ERK normalized to GAPDH
Method in brief: as §1

[5] = tested on: phospho-ERK in PSN-1 (G12R) cells; assay: as above; type: cell-based; conditions: Homo sapiens, PSN1, 3 hours compound, phospho-ERK normalized to GAPDH
Method in brief: as §1

[6] = tested on: phospho-ERK in MKN1 (WTdep) cells; assay: as above; type: cell-based; conditions: Homo sapiens, MKN-1, 3 hours compound, phospho-ERK normalized to GAPDH
Method in brief: as §1

[7] = tested on: phospho-ERK in HCT116 (G13D) cells; assay: as above; type: cell-based; conditions: Homo sapiens, HCT-116, 3 hours compound, phospho-ERK normalized to GAPDH
Method in brief: as §1

[8] = tested on: phospho-ERK in A549 (G12S) cells; assay: as above; type: cell-based; conditions: Homo sapiens, 3 hours compound, phospho-ERK normalized to GAPDH
Method in brief: as §1

KRas G12R = KRas G12R (Homo sapiens, UniProt P01116, G12R); assay: biochemical;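 also: TR-FRET displacement assay of compound binding to KRas, read after one hour at room temperature, potency from a four-parameter fit of percent-of-control values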
Protocol: as §2

pERK in PSN1 cells = assay: Inhibition of KRas phosphorylation of ERK (Cisbio HTRF pERK assay); conditions: Homo sapiens, PSN1, 3 h, read-out: Inhibition (HTRF IC50) of KRas-mediated Phosphorylation of ERK, PSN1
pERK in MKN1 cells = assay: as above; conditions: Homo sapiens, MKN-1, 3 h, read-out: Inhibition (HTRF IC50) of KRas-mediated Phosphorylation of ERK, MKN1
pERK in ASPC1 cells = assay: as above; conditions: Homo sapiens, ASPC1, read-out: Inhibition (HTRF IC50) of KRas-mediated Phosphorylation of ERK, AsPC-1
pERK in H727 cells = assay: as above; conditions: Homo sapiens, NCI-H727, read-out: Inhibition (HTRF IC50) of KRas-mediated Phosphorylation of ERK, H727
pERK in HCT116 cells = assay: as above; conditions: Homo sapiens, HCT-116, read-out: Inhibition (HTRF IC50) of KRas-mediated Phosphorylation of ERK, HCT116

T1 sequence (P01116 1-169 isoform P01116-2 Q61H): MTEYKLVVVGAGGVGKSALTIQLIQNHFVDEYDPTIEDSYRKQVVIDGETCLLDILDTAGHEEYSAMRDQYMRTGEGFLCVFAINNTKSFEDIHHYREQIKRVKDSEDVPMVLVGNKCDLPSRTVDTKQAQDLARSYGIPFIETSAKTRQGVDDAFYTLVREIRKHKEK
KRas G12C, sequence (P01116 1-169 isoform P01116-2 G12C): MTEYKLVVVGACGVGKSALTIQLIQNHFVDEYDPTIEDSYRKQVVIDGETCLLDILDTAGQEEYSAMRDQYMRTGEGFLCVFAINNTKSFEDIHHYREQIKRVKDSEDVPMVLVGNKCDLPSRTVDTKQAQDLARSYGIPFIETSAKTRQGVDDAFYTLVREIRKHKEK
KRas G12S, sequence (P01116 1-169 isoform P01116-2 G12S): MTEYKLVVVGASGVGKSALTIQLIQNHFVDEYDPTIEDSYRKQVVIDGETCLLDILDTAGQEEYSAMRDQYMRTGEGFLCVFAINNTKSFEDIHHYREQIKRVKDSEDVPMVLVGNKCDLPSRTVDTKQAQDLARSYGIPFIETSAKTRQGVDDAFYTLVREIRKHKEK
KRas G12R, sequence (P01116 1-169 isoform P01116-2 G12R): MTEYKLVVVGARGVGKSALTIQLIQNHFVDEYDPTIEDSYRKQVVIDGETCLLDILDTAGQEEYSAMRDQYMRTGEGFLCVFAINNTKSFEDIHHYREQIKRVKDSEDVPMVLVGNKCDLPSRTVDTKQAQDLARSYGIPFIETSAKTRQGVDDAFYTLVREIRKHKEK
T2 sequence (P01116 1-169 isoform P01116-2 G13D): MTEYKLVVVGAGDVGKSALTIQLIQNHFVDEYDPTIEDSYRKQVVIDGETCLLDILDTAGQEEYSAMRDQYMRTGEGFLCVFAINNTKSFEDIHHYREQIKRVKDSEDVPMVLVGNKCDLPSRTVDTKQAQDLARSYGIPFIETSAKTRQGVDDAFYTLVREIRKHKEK
KRas WT, sequence (P01116 1-169 isoform P01116-2): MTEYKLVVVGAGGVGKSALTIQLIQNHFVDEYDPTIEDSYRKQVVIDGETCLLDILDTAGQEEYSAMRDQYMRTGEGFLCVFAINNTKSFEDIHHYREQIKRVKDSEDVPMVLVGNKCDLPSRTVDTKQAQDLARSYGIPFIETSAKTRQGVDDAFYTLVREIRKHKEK
KRas G12D, sequence (P01116 1-169 isoform P01116-2 G12D): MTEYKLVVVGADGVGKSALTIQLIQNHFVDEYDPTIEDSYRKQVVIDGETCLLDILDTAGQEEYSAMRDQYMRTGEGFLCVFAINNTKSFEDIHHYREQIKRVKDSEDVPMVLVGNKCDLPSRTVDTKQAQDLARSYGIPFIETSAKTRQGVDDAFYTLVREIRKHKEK
KRas G12V, sequence (P01116 1-169 isoform P01116-2 G12V): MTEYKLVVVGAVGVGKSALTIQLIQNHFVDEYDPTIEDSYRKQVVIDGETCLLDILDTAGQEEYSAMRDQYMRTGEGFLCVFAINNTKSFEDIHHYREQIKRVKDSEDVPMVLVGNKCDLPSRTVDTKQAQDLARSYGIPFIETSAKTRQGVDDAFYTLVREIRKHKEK
KRas G12A, sequence (P01116 1-169 isoform P01116-2 G12A): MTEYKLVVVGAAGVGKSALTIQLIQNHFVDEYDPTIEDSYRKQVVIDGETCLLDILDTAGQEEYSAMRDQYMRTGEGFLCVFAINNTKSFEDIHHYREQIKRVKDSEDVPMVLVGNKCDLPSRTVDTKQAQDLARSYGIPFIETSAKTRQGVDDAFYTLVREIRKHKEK

| SMILES | IC50 (KRas G12C) [nM] | IC50 (KRas G12D) [nM] | IC50 (KRas G12V) [nM] | IC50 (KRas WT) [nM] | IC50 (KRas G12S) [nM] | IC50 (KRas G12A) [nM] | IC50 (KRas G12R) [nM] | IC50 (pERK in ASPC1 cells) [nM] | IC50 (pERK in H727 cells) [nM] | IC50 [1] [nM] | IC50 [2] [nM] | IC50 [3] [nM] | IC50 [4] [nM] | IC50 [5] [nM] | IC50 [6] [nM] | IC50 [7] [nM] | IC50 [8] [nM] | other results |
| --- | --- | --- | --- | --- | --- | --- | --- | --- | --- | --- | --- | --- | --- | --- | --- | --- | --- | --- |
| CCc1c(F)ccc2cc(O)cc(-c3ncc4c(N5CCCCC5)nc(OC[C@@]56CCCN5C[C@H](O)C6)nc4c3F)c12 [Example 7] | ≤ 2 | ≤ 2 | ≤ 2 | 3 | ≤ 2 | ≤ 2 | ≤ 2 |  |  | 416 | 199 | 530 | 802 | 3590 | 32 | 627 | 1090 | IC50 (KRas Q61H): 3 nM; IC50 (KRas G13D): 3 nM |
| CCc1c(F)ccc2cccc(-c3ncc4c(N5CCC[C@@](C)(O)C5)nc(OC[C@@]56CCCN5C[C@H](F)C6)nc4c3F)c12 [Example 16, (R)-1-(7-(8-ethyl-7-fluoronaphthalen-1-yl)-8-fluoro-2-(((2R,7aS)-2-fluorohexahydro-1H-pyrrolizin-7a-yl)methoxy)pyrido[4,3-d]pyrimidin-4-yl)-3-methylpiperidin-3-ol] |  |  |  |  |  |  |  |  |  | 113 | 1180 | ≥ 10000 | 654 | ≥ 10000 | 802 | 2180 | 1760 | IC50 (pERK in PSN1 cells): ≥ 10000 nM; IC50 (pERK in MKN1 cells): 275 nM |
| C#Cc1c(F)ccc2cc(O)cc(-c3ncc4c(N5CCCC6(CNC(=O)C6)C5)nc(OC[C@@]56CCCN5C[C@H](F)C6)nc4c3F)c12 (stereo partly shown) [Example 24] | ≤ 2 | ≤ 2 | ≤ 2 | ≤ 2 | ≤ 2 | ≤ 2 | ≤ 2 |  |  | 2820 | 454 | 4720 | 1680 | 3690 | 406 | 1370 | ≥ 10000 |  |
| CCc1c(F)ccc2cc(O)cc(-c3ncc4c(N5CCCC6(CNC(=O)N6)C5)nc(OC[C@@]56CCCN5C[C@H](F)C6)nc4c3F)c12 (stereo partly shown) [Example 133] |  | ≤ 2 | ≤ 2 |  |  |  | ≤ 2 | 144 | 246 | 49 | 41 | 612 | 156 | ≥ 10000 | 171 | 650 | 55 | IC50 (pERK in HCT116 cells): 360 nM |
| CCc1c(F)ccc2cc(O)cc(-c3ncc4c(NCCC(N)=O)nc(OC[C@@]56CCCN5C[C@H](F)C6)nc4c3F)c12 [Example 141] |  | ≤ 2 | ≤ 2 |  |  |  | ≤ 2 | 641 | 2130 | 1110 | 88 | ≥ 10000 | 210 | ≥ 10000 | 282 | ≥ 10000 | 875 |  |
| CCc1c(F)ccc2cc(O)cc(-c3ncc4c(NCCCc5ccncc5)nc(OC[C@@]56CCCN5C[C@H](F)C6)nc4c3F)c12 [Example 176, 5-ethyl-6-fluoro-4-(8-fluoro-2-(((2R,7aS)-2-fluorohexahydro-1H-pyrrolizin-7a-yl)methoxy)-4-((3-(pyridin-4-yl)propyl)amino)pyrido[4,3-d]pyrimidin-7-yl)naphthalen-2-ol] |  | 108 | 20 |  |  |  | 30 |  |  | 3510 | 1250 | 3950 | ≥ 10000 | ≥ 10000 | 701 | ≥ 10000 | ≥ 10000 |  |
| CCc1c(F)ccc2cc(O)cc(-c3ncc4c(OCCCc5cccnc5)nc(OC[C@@]56CCCN5C[C@H](F)C6)nc4c3F)c12 [Example 298, 5-ethyl-6-fluoro-4-(8-fluoro-2-(((2R,7aS)-2-fluorohexahydro-1H-pyrrolizin-7a-yl)methoxy)-4-(3-(pyridin-3-yl)propoxy)pyrido[4,3-d]pyrimidin-7-yl)naphthalen-2-ol] |  | 1520 | 133 |  |  |  | 99 |  |  | ≥ 10000 | 5010 | ≥ 10000 | ≥ 10000 | ≥ 10000 | 2710 | ≥ 10000 | ≥ 10000 |  |

Continued, in another order:

| IC50 (KRas G12C) [nM] | IC50 (KRas G12D) [nM] | IC50 (KRas G12V) [nM] | IC50 (KRas WT) [nM] | IC50 (KRas G12S) [nM] | IC50 (KRas G12A) [nM] | IC50 (KRas G12R) [nM] | IC50 (pERK in ASPC1 cells) [nM] | IC50 (pERK in H727 cells) [nM] | SMILES | IC50 [1] [nM] | IC50 [2] [nM] | IC50 [3] [nM] | IC50 [4] [nM] | IC50 [5] [nM] | IC50 [6] [nM] | IC50 [7] [nM] | IC50 [8] [nM] | other results |
| --- | --- | --- | --- | --- | --- | --- | --- | --- | --- | --- | --- | --- | --- | --- | --- | --- | --- | --- |
| 51 | 29 | 52 | 51 | 58 | 58 | 109 |  |  | C#Cc1c(F)ccc2cccc(-c3ncc4c(N5CCC[C@@](C)(O)C5)nc(OCC56CCCN5CCC6)nc4c3F)c12 [Example 14, (R)-1-(7-(8-ethynyl-7-fluoronaphthalen-1-yl)-8-fluoro-2-((hexahydro-1H-pyrrolizin-7a-yl)methoxy)pyrido[4,3-d]pyrimidin-4-yl)-3-methylpiperidin-3-ol] | ≥ 10000 | 725 | 4580 | 847 | ≥ 10000 | 1380 | 1590 | ≥ 10000 | IC50 (KRas Q61H): 80 nM; IC50 (KRas G13D): 61 nM |
| 37 | 24 | 42 | 41 | 42 | 38 | 81 |  |  | CCc1c(F)ccc2cccc(-c3ncc4c(N5CCC[C@@](C)(O)C5)nc(OCC56CCCN5CCC6)nc4c3F)c12 [Example 15] | ≥ 10000 | 495 | ≥ 10000 | 731 | ≥ 10000 | 1260 | 5160 | 3640 | IC50 (KRas Q61H): 52 nM; IC50 (KRas G13D): 42 nM |
|  | 3 | ≤ 2 |  |  |  | 6 | 2100 | 1920 | CC1(O)CCCN(c2nc(OCC34CCCN3CCC4)nc3c(F)c(-c4cc(O)cc(Cl)c4C4CC4)ncc23)C1 (stereo not shown) [Example 71, 1-(7-(3-chloro-2-cyclopropyl-5-hydroxyphenyl)-8-fluoro-2-((tetrahydro-1H-pyrrolizin-7a(5H)-yl)methoxy)pyrido[4,3-d]pyrimidin-4-yl)-3-methylpiperidin-3-ol] | 2170 | 361 | 2240 | 4730 | ≥ 10000 | 140 | 1950 | ≥ 10000 |  |
|  | 9 | 5 |  |  |  | 6 | 623 | 912 | C[C@@H]1C[C@@H]1c1c(Cl)cc(O)cc1-c1ncc2c(N3CCCC(C)(O)C3)nc(OCC34CCCN3CCC4)nc2c1F (stereo partly drawn) [Example 132, 1-(7-(3-chloro-5-hydroxy-2-((1S,2R)-2-methylcyclopropyl)phenyl)-8-fluoro-2-((tetrahydro-1H-pyrrolizin-7a(5H)-yl)methoxy)pyrido[4,3-d]pyrimidin-4-yl)-3-methylpiperidin-3-ol] | 206 | 131 | ≥ 10000 | 104 | ≥ 10000 | 27 | ≥ 10000 | ≥ 10000 |  |

Reference: patent US12398154B2, “Azaquinazoline pan-KRas inhibitors” (Mirati Therapeutics, Inc., priority 2020, dated 2025)
